Source: article PMC3203607 (Nucleic Acids Research, 2011)

Assays:
Format in all cases: binding
Ascaris eIF4E-3 [1] = molecular target: T1, Ascaris eIF4E-3 (Ascaris suum, UniProt Q6PKX2); assay: fluorescence titration; details: read-out: KD (μM) / Ascaris eIF4E-3; 50 mM HEPES/KOH pH 7.20, 200 mM KCl, 1 mM DTT, 0.5 mM EDTA, 20 °C
T1 sequence (Q6PKX2 1-236): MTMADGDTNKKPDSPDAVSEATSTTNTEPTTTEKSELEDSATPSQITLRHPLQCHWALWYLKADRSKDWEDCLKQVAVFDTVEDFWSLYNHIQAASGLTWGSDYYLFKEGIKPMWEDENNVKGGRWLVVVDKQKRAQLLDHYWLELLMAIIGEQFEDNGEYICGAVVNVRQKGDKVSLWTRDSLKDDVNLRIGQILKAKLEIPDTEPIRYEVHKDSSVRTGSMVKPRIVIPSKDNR

Ascaris eIF4E-3 [2] = molecular target: T2, Ascaris eIF4E-3 (Ascaris suum, UniProt Q6PKX2, E116D); assay: isothermal titration calorimetry; details: 20 mM HEPES pH 7.4, 1 mM EDTA, 100 mM KCl, 20 °C
T2 sequence (Q6PKX2 1-236 E116D): T1 sequence (Q6PKX2 1-236)

Human eIF4E = Human eIF4E (Homo sapiens, UniProt P06730); assay: isothermal titration calorimetry
Ascaris eIF4E-3 [3] = molecular target: T1, Ascaris eIF4E-3; assay: isothermal titration calorimetry; details: 20 mM HEPES pH 7.4, 1 mM EDTA, 100 mM KCl, 20 °C; single-site model
Ascaris eIF4E-3 (49–236) = molecular target: T3, Ascaris eIF4E-3 (49–236) (Ascaris suum, UniProt Q6PKX2); assay: isothermal titration calorimetry
T3 sequence (Q6PKX2 49-236): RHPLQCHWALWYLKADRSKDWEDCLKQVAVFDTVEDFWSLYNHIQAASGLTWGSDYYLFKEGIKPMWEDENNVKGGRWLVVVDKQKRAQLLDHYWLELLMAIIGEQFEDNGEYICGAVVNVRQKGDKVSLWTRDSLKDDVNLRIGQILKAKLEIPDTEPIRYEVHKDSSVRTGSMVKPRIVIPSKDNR

Human eIF4E (28–217) = Human eIF4E (28–217) (Homo sapiens, UniProt P06730); assay: fluorescence titration
Chain of Human eIF4E (28–217) (P06730 28-217): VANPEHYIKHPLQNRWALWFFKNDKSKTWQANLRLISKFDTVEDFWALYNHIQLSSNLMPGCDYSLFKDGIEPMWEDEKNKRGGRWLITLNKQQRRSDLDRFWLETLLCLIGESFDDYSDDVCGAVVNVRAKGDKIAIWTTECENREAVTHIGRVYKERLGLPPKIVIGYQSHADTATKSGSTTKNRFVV

Chain of Human eIF4E (P06730 whole entry): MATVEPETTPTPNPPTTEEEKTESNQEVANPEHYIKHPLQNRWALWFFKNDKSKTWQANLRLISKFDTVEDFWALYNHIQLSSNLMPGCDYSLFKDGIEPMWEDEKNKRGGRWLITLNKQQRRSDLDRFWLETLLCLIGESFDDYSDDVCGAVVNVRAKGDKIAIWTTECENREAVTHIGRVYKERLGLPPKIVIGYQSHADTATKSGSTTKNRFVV

Compound	Kd (Ascaris eIF4E-3 [1]) [µM]	Kd (Ascaris eIF4E-3 [2]) [µM]	Kd (Human eIF4E) [µM]	Kd (Ascaris eIF4E-3 [3]) [µM]	Kd (Ascaris eIF4E-3 (49–236)) [µM]	Kd (Human eIF4E (28–217)) [µM]
Nc1nc2c(ncn2[C@@H]2O[C@H](COP(=O)(O)OP(=O)(O)OP(=O)(O)O)[C@@H](O)[C@H]2O)c(=O)[nH]1 [GTP]	83 ± 14					
CN(C)c1nc2c(c(=O)[nH]1)[n+](C)cn2[C@@H]1O[C@H](COP(=O)(O)OP(=O)(O)OP(=O)(O)O)[C@@H](O)[C@H]1O [m^2,2,7GTP]		7 ± 0.1	4.56 ± 2.1	8.4 ± 1	12.2 ± 3.9	
CN(C)c1nc2c(c(=O)[nH]1)[n+](C)cn2[C@@H]1O[C@H](COP(=O)(O)OP(=O)(O)OP(=O)(O)OC[C@H]2O[C@@H](n3cnc4c(=O)[nH]c(N)nc43)[C@H](O)[C@@H]2O)[C@@H](O)[C@H]1O [m^2,2,7GpppG]						3.1 ± 1.1
C[n+]1cn([C@@H]2O[C@H](COP(=O)(O)OP(=O)(O)OP(=O)(O)O)[C@@H](O)[C@H]2O)c2nc(N)[nH]c(=O)c21 [m^7GTP]		1.98 ± 0.2		0.24 ± 0.04	0.17 ± 0.05	
C[n+]1cn([C@@H]2O[C@H](COP(=O)(O)OP(=O)(O)OP(=O)(O)OC[C@H]3O[C@@H](n4cnc5c(=O)[nH]c(N)nc54)[C@H](O)[C@@H]3O)[C@@H](O)[C@H]2O)c2nc(N)[nH]c(=O)c21 [m^7GpppG]	0.787 ± 0.025				0.75 ± 0.19	
